The record followed here is paper PMC9550195, “GSK3β-dependent lysosome biogenesis: An effective pathway to mitigate renal fibrosis with LM49” (Frontiers in Pharmacology, 2022).

The target of the assay is T1, GSK3β (Homo sapiens, UniProt P49841).
T1 construct: gene GSK3B
Briefly: BLI with immobilised biotinylated recombinant GSK-3β; supported by mobility shift kinase assay (IC50 […]), Lineweaver-Burk, CETSA, DARTS. The class given is binding.

T1 sequence (P49841 whole entry): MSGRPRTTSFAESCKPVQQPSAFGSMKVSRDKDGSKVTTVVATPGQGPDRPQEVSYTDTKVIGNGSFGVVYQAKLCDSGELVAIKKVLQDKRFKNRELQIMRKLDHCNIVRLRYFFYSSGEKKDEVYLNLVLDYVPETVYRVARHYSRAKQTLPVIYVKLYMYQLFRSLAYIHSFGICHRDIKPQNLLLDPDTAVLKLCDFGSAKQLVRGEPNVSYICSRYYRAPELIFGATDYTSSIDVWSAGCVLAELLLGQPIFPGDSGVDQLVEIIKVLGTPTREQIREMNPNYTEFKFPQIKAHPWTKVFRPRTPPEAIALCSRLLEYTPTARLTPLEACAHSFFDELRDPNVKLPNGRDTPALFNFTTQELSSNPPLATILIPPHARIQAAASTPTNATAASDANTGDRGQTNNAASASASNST

In the case of `O=C(c1cc(Br)ccc1O)c1cc(O)c(O)cc1Br` [LM49, 5,2′-dibromo-2,4′,5′-trihydroxydiphenylmethanone], the dissociation constant Kd was 122 µM.

A word on the Kd: it is a measure of binding affinity in units of concentration.
